Source: ChEMBL document CHEMBL4665643 (Bioorg Med Chem Lett, 2019)

What was measured:
[1] = species on record: Homo sapiens
[2] = Metabolic stability in human liver microsomes assessed as intrinsic clearance at 1 uM measured upto 60 mins by LC-MS/MS analysis; format: ADME, Microsome; settings: read-out: CLH
[3] = Lipophilicity, logD of compound; format: physicochemical; settings: octanol/water
[4] = target: Non-receptor tyrosine-protein kinase TYK2 (Homo sapiens) (UniProt P29597); experiment: Inhibition of recombinant human N-terminal GST-tagged TYK2 (833 to 1187 residues) expressed in baculovirus expression system using Tyr 03 as substrate at 0.1 uM incubated for 60 mins by Z'-Lyte assay relative to control
[5] = target: Tyrosine-protein kinase Fyn (Homo sapiens) (UniProt P06241); experiment: Inhibition of recombinant human C-terminal His-tagged full length FYN expressed in baculovirus expression system using Tyr 02 as substrate at 0.1 uM incubated for 60 mins by Z'-Lyte assay relative to control
[6] = target: Proto-oncogene tyrosine-protein kinase ROS (Homo sapiens) (UniProt P08922); experiment: Inhibition of recombinant human GST-tagged […] ROS1 (1883 to 2347 residues) expressed in baculovirus expression system using Tyr 01 as substrate at 0.1 uM incubated for 60 mins by Z'-Lyte assay relative to control
[7] = target: Cyclin-dependent kinase 1/cyclin B1 (Homo sapiens) (UniProt P06493+P14635); experiment: Inhibition of recombinant human His-tagged full length CDK1/Cyclin B expressed in baculovirus expression system using Ser/Thr 18 as substrate at 0.1 uM incubated for 60 mins by Z'-Lyte assay relative to control
[8] = target: CDK8/Cyclin C (Homo sapiens) (UniProt P49336+P24863); experiment: Inhibition of tracer 236 binding to recombinant human His-tagged full length CDK8/Cyclin C expressed in baculovirus expression system at 0.1 uM incubated for 60 mins by Lanthascreen assay relative to control
[9] = target: Proto-oncogene tyrosine-protein kinase Src (Homo sapiens) (UniProt P12931); experiment: Inhibition of recombinant human C-terminal His-tagged full length SRC expressed in baculovirus expression system using Tyr 02 as substrate at 0.1 uM incubated for 60 mins by Z'-Lyte assay relative to control
[10] = target: Mitogen-activated protein kinase 9 (Homo sapiens) (UniProt P45984); experiment: Inhibition of recombinant human His-tagged full length JNK2 expressed in baculovirus expression system using Ser/Thr 04 as substrate at 0.1 uM incubated for 60 mins by Z'-lyte assay relative to control
[11] = tested on: RAF proto-oncogene serine/threonine-protein kinase (Homo sapiens), P04049 [Y340D,Y341D]; experiment: Inhibition of recombinant human GST-tagged RAF1 Y340D/Y341D double mutant (306 to 648 residues) expressed in baculovirus expression system using Ser/Thr 03 as substrate at 0.1 uM incubated for 60 mins by Z'-Lyte assay relative to control
[12] = target: Mitogen-activated protein kinase 3 (Homo sapiens) (UniProt P27361); experiment: Inhibition of recombinant human GST-tagged full length ERK1 expressed in Escherichia coli expression system using Ser/Thr 03 as substrate at 0.1 uM incubated for 60 mins by Z'-Lyte assay relative to control
[13] = target: Serine/threonine-protein kinase B-raf (Homo sapiens) (UniProt P15056); experiment: Inhibition of recombinant human GST-tagged full length BRAF expressed in baculovirus expression system using Ser/Thr 03 as substrate at 0.1 uM incubated for 60 mins by Z'-Lyte assay relative to control
[14] = target: RAC-alpha serine/threonine-protein kinase (Homo sapiens) (UniProt P31749); experiment: Inhibition of recombinant human His-tagged full length AKT1 expressed in baculovirus expression system using Ser/Thr 06 as substrate at 0.1 uM incubated for 60 mins by Z'-Lyte assay relative to control
[15] = target: Receptor tyrosine-protein kinase erbB-2 (Homo sapiens) (UniProt P04626); experiment: Inhibition of recombinant human His-tagged ERBB2 (676 to 1255 residues) expressed in baculovirus expression system using Tyr 06 as substrate at 0.1 uM incubated for 60 mins by Z'-Lyte assay relative to control
[16] = target: Serine/threonine-protein kinase mTOR (Homo sapiens) (UniProt P42345); experiment: Inhibition of recombinant human GST-tagged mTOR (1360 to 2549 residues) expressed in Escherichia coli expression system using Ser/Thr 11 as substrate at 0.1 uM incubated for 60 mins by Z'-Lyte assay relative to control
[17] = target: MAP kinase-activated protein kinase 2 (Homo sapiens) (UniProt P49137); experiment: Inhibition of recombinant human His-tagged full length MAPKAPK2 expressed in Escherichia coli expression system using Ser/Thr 04 as substrate at 0.1 uM incubated for 60 mins by Z'-lyte assay relative to control
[18] = target: Fibroblast growth factor receptor 4 (Homo sapiens) (UniProt P22455); experiment: Inhibition of recombinant human His-tagged FGFR4 ([…]) expressed in baculovirus expression system using Tyr 04 as substrate at 0.1 uM incubated for 60 mins by Z'-Lyte assay relative to control
[19] = target: T1, cGMP-dependent protein kinase 1 (Homo sapiens) (UniProt Q13976); experiment: Inhibition of recombinant human GST-tagged full length PKG1 alpha expressed in baculovirus expression system using Ser/Thr 01 as substrate at 0.1 uM incubated for 60 mins by Z'-Lyte assay relative to control
T1 sequence (whole entry): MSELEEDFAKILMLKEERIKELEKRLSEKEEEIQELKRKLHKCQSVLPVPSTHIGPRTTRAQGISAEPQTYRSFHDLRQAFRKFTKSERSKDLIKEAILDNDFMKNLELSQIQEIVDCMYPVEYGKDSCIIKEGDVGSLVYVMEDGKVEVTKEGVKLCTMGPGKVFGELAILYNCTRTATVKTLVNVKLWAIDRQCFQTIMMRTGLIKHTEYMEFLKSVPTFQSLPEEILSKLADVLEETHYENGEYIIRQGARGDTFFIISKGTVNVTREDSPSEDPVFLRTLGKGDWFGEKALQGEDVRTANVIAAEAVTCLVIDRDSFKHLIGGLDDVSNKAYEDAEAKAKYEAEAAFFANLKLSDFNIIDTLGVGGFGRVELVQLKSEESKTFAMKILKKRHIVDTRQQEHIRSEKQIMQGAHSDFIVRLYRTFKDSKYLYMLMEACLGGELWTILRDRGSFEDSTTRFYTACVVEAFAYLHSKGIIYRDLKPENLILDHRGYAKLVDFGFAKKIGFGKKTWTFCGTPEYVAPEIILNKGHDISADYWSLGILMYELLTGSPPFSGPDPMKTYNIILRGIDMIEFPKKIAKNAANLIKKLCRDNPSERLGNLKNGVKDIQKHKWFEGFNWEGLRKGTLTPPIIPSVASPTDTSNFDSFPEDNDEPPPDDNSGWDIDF

[20] = target: Janus Kinase (JAK) (Homo sapiens, UniProt P52333+P23458+O60674+P29597); settings: beas-2b
Description: Inhibition of JAK in human BEAS-2B cells assessed as reduction in IL13-induced STAT6 phosphorylation incubated for 1 hr followed by IL13 addition and measured after 15 mins by immunofluorescence assay

Chain of Proto-oncogene tyrosine-protein kinase ROS (Homo sapiens) (P08922 whole entry, the tested form may be a part): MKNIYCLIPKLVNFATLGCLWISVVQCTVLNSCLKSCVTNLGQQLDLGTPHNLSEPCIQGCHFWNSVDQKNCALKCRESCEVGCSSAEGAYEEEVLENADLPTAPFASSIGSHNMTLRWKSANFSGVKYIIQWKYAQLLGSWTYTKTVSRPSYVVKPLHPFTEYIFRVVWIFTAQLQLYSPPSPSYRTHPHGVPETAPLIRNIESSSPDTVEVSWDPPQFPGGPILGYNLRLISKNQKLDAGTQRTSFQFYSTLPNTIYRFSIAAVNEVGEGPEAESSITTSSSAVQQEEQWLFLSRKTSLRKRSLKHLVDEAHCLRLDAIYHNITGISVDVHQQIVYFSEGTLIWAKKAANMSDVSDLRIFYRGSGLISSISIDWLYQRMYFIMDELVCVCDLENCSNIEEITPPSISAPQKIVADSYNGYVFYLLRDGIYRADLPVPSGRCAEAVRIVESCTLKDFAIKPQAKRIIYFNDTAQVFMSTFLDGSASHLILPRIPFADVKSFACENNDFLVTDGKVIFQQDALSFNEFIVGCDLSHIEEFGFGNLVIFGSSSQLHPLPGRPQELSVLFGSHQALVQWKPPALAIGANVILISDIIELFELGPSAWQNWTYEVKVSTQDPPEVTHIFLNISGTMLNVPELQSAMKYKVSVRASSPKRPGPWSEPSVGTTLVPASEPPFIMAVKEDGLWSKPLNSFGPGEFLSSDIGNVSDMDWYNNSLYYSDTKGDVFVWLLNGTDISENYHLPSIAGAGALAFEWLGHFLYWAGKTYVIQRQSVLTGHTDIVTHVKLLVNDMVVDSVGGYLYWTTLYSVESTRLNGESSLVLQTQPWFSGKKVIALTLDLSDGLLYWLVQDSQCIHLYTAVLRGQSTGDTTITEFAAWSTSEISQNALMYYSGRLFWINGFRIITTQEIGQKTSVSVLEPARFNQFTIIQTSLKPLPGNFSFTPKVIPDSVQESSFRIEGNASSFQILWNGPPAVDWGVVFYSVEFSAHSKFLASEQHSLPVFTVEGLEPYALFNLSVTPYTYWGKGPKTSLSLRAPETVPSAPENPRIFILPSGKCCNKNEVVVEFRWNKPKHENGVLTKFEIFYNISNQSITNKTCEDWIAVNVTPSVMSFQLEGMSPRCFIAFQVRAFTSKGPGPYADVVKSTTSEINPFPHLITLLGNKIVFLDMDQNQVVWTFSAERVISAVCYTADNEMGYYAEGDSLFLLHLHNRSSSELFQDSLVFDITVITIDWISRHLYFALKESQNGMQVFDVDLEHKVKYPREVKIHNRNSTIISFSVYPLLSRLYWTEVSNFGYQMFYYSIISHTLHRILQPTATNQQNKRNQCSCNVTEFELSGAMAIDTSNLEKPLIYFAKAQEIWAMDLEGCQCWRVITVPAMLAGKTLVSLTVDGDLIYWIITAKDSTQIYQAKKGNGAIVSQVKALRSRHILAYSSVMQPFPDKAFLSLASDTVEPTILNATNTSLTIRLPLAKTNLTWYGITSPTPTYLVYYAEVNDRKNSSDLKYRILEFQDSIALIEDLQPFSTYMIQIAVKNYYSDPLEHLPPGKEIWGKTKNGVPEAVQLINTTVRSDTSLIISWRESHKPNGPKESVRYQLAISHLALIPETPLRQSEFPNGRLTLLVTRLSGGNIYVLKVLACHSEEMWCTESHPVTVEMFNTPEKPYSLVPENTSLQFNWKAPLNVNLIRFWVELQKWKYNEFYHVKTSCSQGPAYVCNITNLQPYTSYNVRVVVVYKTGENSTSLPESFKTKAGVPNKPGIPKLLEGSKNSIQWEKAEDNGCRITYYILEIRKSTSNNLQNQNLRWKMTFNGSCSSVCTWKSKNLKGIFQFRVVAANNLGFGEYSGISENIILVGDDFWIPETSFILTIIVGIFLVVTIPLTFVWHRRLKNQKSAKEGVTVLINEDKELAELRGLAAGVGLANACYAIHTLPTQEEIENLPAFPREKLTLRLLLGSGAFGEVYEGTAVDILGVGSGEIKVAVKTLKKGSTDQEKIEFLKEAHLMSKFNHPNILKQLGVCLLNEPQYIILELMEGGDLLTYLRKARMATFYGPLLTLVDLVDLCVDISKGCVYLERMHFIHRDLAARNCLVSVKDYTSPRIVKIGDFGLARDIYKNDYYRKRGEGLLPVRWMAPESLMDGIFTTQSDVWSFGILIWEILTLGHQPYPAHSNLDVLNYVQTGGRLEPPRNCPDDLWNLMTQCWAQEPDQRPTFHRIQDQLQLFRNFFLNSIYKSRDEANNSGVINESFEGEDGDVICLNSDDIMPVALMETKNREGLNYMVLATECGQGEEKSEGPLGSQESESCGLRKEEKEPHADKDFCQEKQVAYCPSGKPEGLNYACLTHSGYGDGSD
Chain of Proto-oncogene tyrosine-protein kinase Src (Homo sapiens) (P12931 2-536 limits assumed): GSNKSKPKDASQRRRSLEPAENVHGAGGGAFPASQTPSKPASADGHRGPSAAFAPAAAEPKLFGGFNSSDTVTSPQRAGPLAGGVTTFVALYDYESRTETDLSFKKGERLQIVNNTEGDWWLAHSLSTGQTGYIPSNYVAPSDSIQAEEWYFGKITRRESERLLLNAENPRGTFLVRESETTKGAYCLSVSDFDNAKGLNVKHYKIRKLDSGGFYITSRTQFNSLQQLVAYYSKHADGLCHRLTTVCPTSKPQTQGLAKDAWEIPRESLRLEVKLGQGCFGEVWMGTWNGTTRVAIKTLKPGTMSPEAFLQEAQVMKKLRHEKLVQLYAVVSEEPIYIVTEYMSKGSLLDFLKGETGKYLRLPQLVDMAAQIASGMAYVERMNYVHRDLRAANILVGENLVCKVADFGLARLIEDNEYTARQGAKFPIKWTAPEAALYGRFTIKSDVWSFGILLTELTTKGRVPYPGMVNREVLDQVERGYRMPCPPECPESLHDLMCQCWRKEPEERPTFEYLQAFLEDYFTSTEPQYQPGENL
Chain of RAC-alpha serine/threonine-protein kinase (Homo sapiens) (P31749 whole entry, the tested form may be a part): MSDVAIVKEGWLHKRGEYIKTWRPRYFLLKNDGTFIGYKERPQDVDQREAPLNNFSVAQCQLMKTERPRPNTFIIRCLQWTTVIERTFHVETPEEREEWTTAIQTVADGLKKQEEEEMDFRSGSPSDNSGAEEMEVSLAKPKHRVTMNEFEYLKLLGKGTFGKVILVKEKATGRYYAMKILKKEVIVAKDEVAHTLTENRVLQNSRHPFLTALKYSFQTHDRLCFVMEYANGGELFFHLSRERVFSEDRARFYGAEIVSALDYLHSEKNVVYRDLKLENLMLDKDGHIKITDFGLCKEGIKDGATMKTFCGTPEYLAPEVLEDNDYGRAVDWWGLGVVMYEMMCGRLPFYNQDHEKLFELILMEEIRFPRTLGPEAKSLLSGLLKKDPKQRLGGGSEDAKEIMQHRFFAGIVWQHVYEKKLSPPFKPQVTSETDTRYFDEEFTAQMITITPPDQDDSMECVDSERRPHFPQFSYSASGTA
Chain of Mitogen-activated protein kinase 9 (Homo sapiens) (P45984 whole entry, looked up, the tested form may be a part): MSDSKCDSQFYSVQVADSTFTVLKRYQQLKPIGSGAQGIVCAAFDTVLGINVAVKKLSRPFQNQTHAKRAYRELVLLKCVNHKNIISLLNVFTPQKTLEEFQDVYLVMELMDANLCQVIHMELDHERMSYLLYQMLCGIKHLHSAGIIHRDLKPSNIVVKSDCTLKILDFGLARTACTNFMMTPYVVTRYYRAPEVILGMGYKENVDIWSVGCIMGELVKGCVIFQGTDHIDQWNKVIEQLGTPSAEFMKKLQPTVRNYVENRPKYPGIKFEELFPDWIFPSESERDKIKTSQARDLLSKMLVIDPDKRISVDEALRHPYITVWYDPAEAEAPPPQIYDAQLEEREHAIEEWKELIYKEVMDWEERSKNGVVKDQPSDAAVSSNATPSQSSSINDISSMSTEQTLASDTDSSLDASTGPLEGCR
Chain of Mitogen-activated protein kinase 3 (Homo sapiens) (P27361 whole entry): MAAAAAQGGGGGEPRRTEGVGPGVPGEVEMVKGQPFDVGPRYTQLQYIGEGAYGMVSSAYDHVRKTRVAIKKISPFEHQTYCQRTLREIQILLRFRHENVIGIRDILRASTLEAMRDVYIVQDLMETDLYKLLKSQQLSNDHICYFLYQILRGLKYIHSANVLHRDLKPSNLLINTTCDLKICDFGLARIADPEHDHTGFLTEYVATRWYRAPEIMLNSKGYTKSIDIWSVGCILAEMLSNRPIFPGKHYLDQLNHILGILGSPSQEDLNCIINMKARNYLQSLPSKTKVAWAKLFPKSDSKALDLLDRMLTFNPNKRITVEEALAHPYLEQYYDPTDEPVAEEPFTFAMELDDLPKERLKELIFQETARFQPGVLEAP
Chain of RAF proto-oncogene serine/threonine-protein kinase (Homo sapiens), P04049 [Y340D,Y341D] (P04049 whole entry Y340D/Y341D, the tested form may be a part): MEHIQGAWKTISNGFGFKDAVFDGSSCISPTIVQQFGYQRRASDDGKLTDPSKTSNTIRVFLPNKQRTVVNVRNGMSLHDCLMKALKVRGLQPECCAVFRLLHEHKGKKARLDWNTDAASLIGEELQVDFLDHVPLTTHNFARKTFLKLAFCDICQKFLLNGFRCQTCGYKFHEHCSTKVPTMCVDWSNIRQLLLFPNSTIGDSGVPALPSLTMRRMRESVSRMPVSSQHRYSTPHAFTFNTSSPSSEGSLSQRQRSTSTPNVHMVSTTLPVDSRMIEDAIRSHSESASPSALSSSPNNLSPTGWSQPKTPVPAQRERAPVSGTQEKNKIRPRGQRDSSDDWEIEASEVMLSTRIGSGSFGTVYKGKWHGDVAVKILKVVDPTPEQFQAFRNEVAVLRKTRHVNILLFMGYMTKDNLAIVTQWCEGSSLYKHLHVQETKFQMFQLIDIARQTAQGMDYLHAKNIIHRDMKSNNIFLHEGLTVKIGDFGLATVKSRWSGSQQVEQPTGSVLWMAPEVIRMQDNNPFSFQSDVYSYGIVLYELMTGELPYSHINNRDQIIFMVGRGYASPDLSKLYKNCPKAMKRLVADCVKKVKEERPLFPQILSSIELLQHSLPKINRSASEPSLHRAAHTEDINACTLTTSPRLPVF

Row | Structure (SMILES) | Ratio IC50 [1] | CLint scaled at 1 µM [2] | logD [3] | inhibition [4] | inhibition [5] | inhibition [6] | inhibition [7] | inhibition [8] | inhibition [9] | inhibition [10] | inhibition [11] | inhibition [12] | inhibition [13] | inhibition [14] | inhibition [15] | inhibition [16] | inhibition [17] | inhibition [18] | inhibition [19] | IC50 [20]
1 | Cn1cc(NC(=O)c2cnn3cccnc23)c(-c2cc(Cl)ccc2OC(F)F)n1 | 47 | 15 mL/min/kg | 3 | 98% | 89% | 62% | 4% | 14% | 28% | -2% | 3% | 4% | 5% | -6% | -1% | -3% | 10% | 5% | 4% | 4.7 nM
2 | O=C(Nc1c[nH]nc1-c1cc(Cl)ccc1OC(F)F)c1cnn2cccnc12 | 15 | 14 mL/min/kg | 3.2 | 100% | 95% | 38% | 53% | 38% | 38% | 16% | 9% | 5% | 1% | 1% | 1% | 1% | 0% | -1% | 0% | 5.2 nM
3 | O=C(Nc1c[nH]nc1-c1cc2ccccc2cc1OC(F)F)c1cnn2cccnc12 | 83 | 17 mL/min/kg | 3.5 | 95% | 78% | 29% | 27% | 24% | 35% | 0% | 7% | 0% | 4% | -5% | -6% | 5% | 6% | 4% | 3% | 6.4 nM
